{"source": "paper PMC4992173", "about": "“Divergent synthesis and identification of the cellular targets of deoxyelephantopins” (Nature Communications, 2016)", "target": "T1, PPARγ (Homo sapiens, UniProt P37231)", "T1 sequence (P37231 1-505)": "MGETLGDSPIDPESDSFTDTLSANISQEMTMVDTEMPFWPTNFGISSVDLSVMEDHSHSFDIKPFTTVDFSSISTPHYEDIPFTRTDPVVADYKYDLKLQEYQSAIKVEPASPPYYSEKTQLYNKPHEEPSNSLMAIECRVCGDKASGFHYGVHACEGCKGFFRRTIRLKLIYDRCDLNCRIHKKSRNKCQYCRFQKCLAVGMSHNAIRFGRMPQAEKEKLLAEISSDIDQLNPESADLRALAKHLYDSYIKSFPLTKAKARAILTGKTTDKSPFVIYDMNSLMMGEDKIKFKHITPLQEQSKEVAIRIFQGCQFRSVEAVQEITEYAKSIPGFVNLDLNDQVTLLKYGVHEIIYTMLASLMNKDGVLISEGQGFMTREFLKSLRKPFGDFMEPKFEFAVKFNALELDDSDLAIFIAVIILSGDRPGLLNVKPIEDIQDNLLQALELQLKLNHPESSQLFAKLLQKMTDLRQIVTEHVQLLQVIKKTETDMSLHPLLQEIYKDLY", "assay": "PPARγ enrichment from MCF7 lysates spiked with recombinant PPARγ (LC-MS/MS LFQ)", "assay_type": "binding", "settings": "for LFQ intensity (PPARG enriched by probe): MCF7 lysates spiked with recombinant PPARγ (30 nM), n=3", "protocol": "On the basis of the reported interaction between deoxyelephantopin and PPARγ and because MCF7 cells are known to express very low levels of this protein, we investigated in a separate experiment whether deoxyelephantopin indeed covalently binds PPARγ. The recombinant transcription factor was spiked into MCF7 lysates to 30 nM final concentration and successfully enriched by the methacrylate ester probe 24c, as evidenced from LC–MS/MS-based label-free quantification (LFQ)[48]. […] To investigate whether DEP is also capable of binding to endogenous PPARγ directly in living cells, we performed a targeted competitive proteomics experiment in Caco-2, a colon cancer cell line known to express larger amounts of PPARγ[49]. The cells were treated in situ with dimethyl sulfoxide (DMSO) or 20 μM deoxyelephantopin, lysed and treated with 24c. Gratifyingly, endogenous PPARγ was successfully enriched and quantified from the DMSO-treated Caco-2 cells, whereas DEP pretreatment efficiently competed PPARγ enrichment (>95%; Fig. 7a). In yet another control experiment, we expressed hPPARγ in HeLa cells and successfully conducted a gel-based competition experiment once again using DEP as an in situ competitor and 24c-Cy3 as reporter probe (Supplementary Fig. 14).\nSupplementary figure 13: LFQ quantification of PPARγ enrichment from supplemented MCF7 lysates using 10 µM of 23c or 24c as enrichment probes (n = 3). […]\nwas processed with MaxQuant (see below).\nIn situ global proteomics profiling using LC-MS/MS. Caco- ’ cells/mL) in a 6-well plate, allowed to grow to confluence and to differentiate for 28 days. The wells were washed one time with PBS and treated with either DMSO, 10 µM rosiglitazone, 50 µM T0070907 or 20 µM DEP for 24 hours. Cells were washed two times with PBS and lysates were prepared. Samples (30 µg) were denatured with 6 M urea in 50 mM NH4HCO3, reduced […]\ndark. Samples were diluted to 2 M urea with 50 mM NH4HCO3, and digested with trypsin ([…] for 12 hours at 37 °C. Samples were acidified to a final concentration of 5% acetic acid, desalted over a self-packed C18 spin column and dried. Samples were analyzed by LC-MS/MS (see below) and the MS data was processed with […]\nARγ nrichment for mass spectrometry. MCF7 lysate (2 mg/ml, 0.5 mL) supplemented µ γ was treated with either 23c or 24c (10 µM, 50x stock in DMSO) for one hour at r.t., followed by click chemistry (see above). […] Samples were analyzed by LC-MS/MS (see below) and the MS data was processed with MaxQuant (see below).\nLC-MS/MS analysis. Peptides were resuspended in water with 0.1% formic acid (FA) and analyzed using Proxeon EASY-nLC 1000 nano-UHPLC coupled to QExactive Plus Quadrupole-Orbitrap mass spectrometer (Thermo Scientific). […]", "data": [{"molecule": "C#CCC[C@H](O)[C@H]1C(=C)C(=O)O[C@@H]1c1ccccc1", "note": "[23c]", "values": [{"measurement": "PPARγ enrichment compared with probe 24c", "setting": "MCF7 lysates spiked with PPARγ, 10 µM probe", "value": "comparable LFQ value"}, {"measurement": "LFQ intensity (PPARG enriched by probe)", "setting": "10 µM probe", "value": "5.49E+09"}]}, {"molecule": "C#CCC[C@H](OC(=O)C(=C)C)[C@H]1C(=C)C(=O)O[C@@H]1c1ccccc1", "note": "[24c]", "values": [{"measurement": "Ratio 24c/23c (LFQ intensity of PPARG)", "setting": "MCF7 lysates spiked with PPARγ, 10 µM probes", "value": 0.94}, {"measurement": "LFQ intensity (PPARG enriched by probe)", "setting": "10 µM probe", "value": "5.15E+09"}]}]}
